Measurements reported in ChEMBL document CHEMBL2074553, “Characterization of bile acid transport mediated by multidrug resistance associated protein 2 and bile salt export pump” (Biochim Biophys Acta, 2001).
Where a name gives a salt, the structure may show the parent alone.

T1: Bile salt export pump (Rattus norvegicus, UniProt O70127)
T1 sequence (O70127 whole entry): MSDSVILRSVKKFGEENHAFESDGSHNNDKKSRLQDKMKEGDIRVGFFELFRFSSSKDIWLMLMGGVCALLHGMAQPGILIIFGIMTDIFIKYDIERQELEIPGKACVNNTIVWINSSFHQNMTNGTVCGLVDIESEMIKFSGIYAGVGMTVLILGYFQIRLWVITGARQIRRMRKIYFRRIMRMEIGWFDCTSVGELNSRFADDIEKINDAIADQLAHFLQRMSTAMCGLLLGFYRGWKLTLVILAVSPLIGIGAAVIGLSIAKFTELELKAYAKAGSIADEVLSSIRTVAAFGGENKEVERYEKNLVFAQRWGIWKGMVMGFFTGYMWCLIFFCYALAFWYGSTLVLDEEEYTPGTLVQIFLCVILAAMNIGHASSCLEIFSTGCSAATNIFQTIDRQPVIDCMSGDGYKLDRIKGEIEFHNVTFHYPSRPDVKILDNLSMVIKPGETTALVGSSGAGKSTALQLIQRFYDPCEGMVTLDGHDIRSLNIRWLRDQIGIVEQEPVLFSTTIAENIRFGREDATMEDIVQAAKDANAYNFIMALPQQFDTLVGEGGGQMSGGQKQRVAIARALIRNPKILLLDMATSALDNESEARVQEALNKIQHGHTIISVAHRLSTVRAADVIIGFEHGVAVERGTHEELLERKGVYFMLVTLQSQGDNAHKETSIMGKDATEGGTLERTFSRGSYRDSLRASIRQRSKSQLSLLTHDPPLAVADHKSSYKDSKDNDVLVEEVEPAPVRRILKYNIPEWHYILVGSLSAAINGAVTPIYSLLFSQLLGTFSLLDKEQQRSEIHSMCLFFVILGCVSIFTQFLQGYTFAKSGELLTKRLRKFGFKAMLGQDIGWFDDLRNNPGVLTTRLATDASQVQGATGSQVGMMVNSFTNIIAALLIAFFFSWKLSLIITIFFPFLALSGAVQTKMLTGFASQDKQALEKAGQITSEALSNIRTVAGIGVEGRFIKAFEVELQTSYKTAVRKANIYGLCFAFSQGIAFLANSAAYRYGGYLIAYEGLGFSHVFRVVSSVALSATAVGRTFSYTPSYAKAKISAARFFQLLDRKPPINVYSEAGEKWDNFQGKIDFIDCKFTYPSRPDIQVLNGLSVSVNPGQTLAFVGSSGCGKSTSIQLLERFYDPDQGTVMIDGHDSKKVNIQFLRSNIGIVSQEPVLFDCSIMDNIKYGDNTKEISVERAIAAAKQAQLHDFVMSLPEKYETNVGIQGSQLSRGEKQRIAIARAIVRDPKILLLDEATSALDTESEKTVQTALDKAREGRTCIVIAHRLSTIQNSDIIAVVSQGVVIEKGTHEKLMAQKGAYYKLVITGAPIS


Assays:
Bile salt export pump [1] = molecular target: T1, Bile salt export pump; experiment: TP_TRANSPORTER: inhibition of Taurocholate uptake (Taurocholate: 1 uM) in membrane vesicles isolated from Bsep-expressing Sf9 cells; format: functional, cell membranes, Membrane vesicle
Bile salt export pump [2] = molecular target: T1, Bile salt export pump; experiment: TP_TRANSPORTER: inhibition of Taurocholate uptake (Taurocholate: 1 uM) in canalicular membrane vesicles from SD rat; format: functional, cell membranes, Sprague-Dawley, Canalicular membrane vesicle
[3] = substrate: C[C@H](CCC(=O)NCCS(=O)(=O)O)C1CC[C@H]2[C@@H]3[C@H](O)C[C@@H]4C[C@H](OS(=O)(=O)O)CC[C@]4(C)[C@H]3CC[C@]12C; experiment: (§1) TP_TRANSPORTER: uptake in canalicular membrane vesicles from SD rat; format: functional, cell membranes, Srague-Dawley, Liver, Canalicular membrane vesicle
[4] = substrate: [H][C@]12CC[C@]3([H])[C@]([H])(CC[C@]4(C)C([C@H](C)CCC(=O)NCCS(=O)(=O)O)CC[C@@]34[H])[C@@]1(C)CC[C@@H](OS(=O)(=O)O)C2; experiment: as §1; format: functional, cell membranes, Srague-Dawley, Liver, Canalicular membrane vesicle
[5] = substrate: [H][C@]12CC[C@]3([H])[C@]([H])(CC[C@]4(C)C([C@H](C)CCC(=O)NCCS(=O)(=O)O)CC[C@@]34[H])[C@@]1(C)CC[C@@H](OS(=O)(=O)O)C2; experiment: TP_TRANSPORTER: uptake in membrane vesicles from Mrp2-expressing Sf9 cells; format: functional, cell membranes, Membrane vesicle

| Molecule | IC50 (Bile salt export pump [1]) | IC50 (Bile salt export pump [2]) | Km [3] | Km [4] | Km [5] |
| --- | --- | --- | --- | --- | --- |
| C[C@H](CCC(=O)NCCS(=O)(=O)O)C1CC[C@H]2[C@@H]3[C@H](O)C[C@@H]4C[C@H](OS(=O)(=O)O)CC[C@]4(C)[C@H]3CC[C@]12C (some centres not stated) [TAUROCHENODEOXYCHOLATE SULFATE] | 67.9 µM | 4.6 µM | – | – | – |
| C[C@H](CCC(=O)NCCS(=O)(=O)O)C1CC[C@H]2[C@@H]3CC[C@@H]4C[C@H](OS(=O)(=O)O)CC[C@]4(C)[C@H]3CC[C@]12C (some centres not stated) | 61.9 µM | 1.2 µM | – | – | – |
| ATP-binding cassette sub-family C member 2 (Rattus norvegicus) (protein) MDKFCNSTFWDLSLLESPEADLPLCFEQTVLVWIPLGFLWLLAPWQLYSVYRSRTKRSSITKFYLAKQVFVVFLLILAAIDLSLALTEDTGQATVPPVRYTNPILYLCTWLLVLAVQHSRQWCVRKNSWFLSLFWILSVLCGVFQFQTLIRALLKDSKSNMAYSYLFFVSYGFQIVLLILTAFSGPSDSTQTPSVTASFLSSITFSWYDRTVLKGYKHPLTLEDVWDIDEGFKTRSVTSKFEAAMTKDLQKARQAFQRRLQKSQRKPEATLHGLNKKQSQSQDVLVLEEAKKKSEKTTKDYPKSWLIKSLFKTFHVVILKSFILKLIHDLLVFLNPQLLKLLIGFVKSSNSYVWFGYICAILMFAVTLIQSFCLQSYFQHCFVLGMCVRTTVMSSIYKKALTLSNLARKQYTIGETVNLMSVDSQKLMDATNYMQLVWSSVIQITLSIFFLWRELGPSILAGVGVMVLLIPVNGVLATKIRNIQVQNMKNKDKRLKIMNEILSGIKILKYFAWEPSFQEQVQGIRKKELKNLLRFGQLQSLLIFILQITPILVSVVTFSVYVLVDSANVLNAEKAFTSITLFNILRFPLSMLPMVTSSILQASVSVDRLERYLGGDDLDTSAIRRVSNFDKAVKFSEASFTWDPDLEATIQDVNLDIKPGQLVAVVGTVGSGKSSLVSAMLGEMENVHGHITIQGSTAYVPQQSWIQNGTIKDNILFGSEYNEKKYQQVLKACALLPDLEILPGGDMAEIGEKGINLSGGQKQRVSLARAAYQDADIYILDDPLSAVDAHVGKHIFNKVVGPNGLLAGKTRIFVTHGIHFLPQVDEIVVLGKGTILEKGSYRDLLDKKGVFARNWKTFMKHSGPEGEATVNNDSEAEDDDDGLIPTMEEIPEDAASLAMRRENSLRRTLSRSSRSSSRRGKSLKNSLKIKNVNVLKEKEKEVEGQKLIKKEFVETGKVKFSIYLKYLQAVGWWSILFIILFYGLNNVAFIGSNLWLSAWTSDSDNLNGTNNSSSHRDMRIGVFGALGLAQGICLLISTLWSIYACRNASKALHGQLLTNILRAPMRFFDTTPTGRIVNRFSGDISTVDDLLPQTLRSWMMCFFGIAGTLVMICMATPVFAIIIIPLSILYISVQVFYVATSRQLRRLDSVTKSPIYSHFSETVTGLPIIRAFEHQQRFLAWNEKQIDINQKCVFSWITSNRWLAIRLELVGNLVVFCSALLLVIYRKTLTGDVVGFVLSNALNITQTLNWLVRMTSEAETNIVAVERISEYINVENEAPWVTDKRPPADWPRHGEIQFNNYQVRYRPELDLVLKGITCNIKSGEKVGVVGRTGAGKSSLTNCLFRILESAGGQIIIDGIDVASIGLHDLRERLTIIPQDPILFSGSLRMNLDPFNKYSDEEVWRALELAHLRSFVSGLQLGLLSEVTEGGDNLSIGQRQLLCLGRAVLRKSKILVLDEATAAVDLETDSLIQTTIRKEFSQCTVITIAHRLHTIMDSDKIMVLDNGKIVEYGSPEELLSNRGSFYLMAKEAGIENVNHTEL | – | – | 8.8 µM | 1.5 µM | 3.9 µM |
